The results in this text go back to US20220218667A1, “DUAL INHIBITORS OF SOLUBLE EPOXIDE HYDROLASE AND METHODS OF USE THEREOF” (OROX Biosciences, Inc., priority 2019, published 2022).

Like-named read-outs stand apart in the source and are kept apart here. Marks after values point to notes of the source that are not given here.

A word on the IC50: it is the concentration that inhibits the measured activity by half.

The test system of series [1] is Human primary lung fibroblasts from IPF donors. The series is described as follows: Fibroblast-to-Myofibroblast Transition (FMT) assay. Type of series: cell-based. The note with it: for IC50: Homo sapiens, Primary lung fibroblast, 1.25 ng/ml TGF-b1. As for the experimental part: OX1 was evaluated in a primary cell-based Fibroblast-to-Myofibroblast Transition (FMT) assay; an in vitro assay relevant to idiopathic pulmonary fibrosis (TPF). Human primary lung fibroblasts from three (3) IPF donors (IPF06, IPF07, and IPF08) were triggered using 1.25 ng/ml TGF-b1 to induce FMT, one hour after application of compounds. OX1 and Nintedanib (approved drug for TPF) were applied in […] in semi-log dilutions with the top concentration at […] to construct eight (8)-point concentration response curve (CRC) in biological duplicates (ie. on two (2) different cell plates at on (1) occasion). SB525334 was used at […] in 0.1% DMSO as a positive validation control. The readouts at 72 hours were high content analysis (HCA) for aSMA expression and DAPI staining for nuclear count as measurement of potential cytotoxic effects.

The subject of series [2] is C57B/L6 mice exposed to bleomycin. Description: Example 1: prophylactic treatment of mice exposed to bleomycin (IPF model). Type of series: in vivo, mouse. The note with it: OX1, OX3, Nintedanib 30 mg/kg QD, Pirfenidone 100 mg/kg BID; for body weight course over 21 days: bleomycin mice, oral gavage day -1 to 20; for neutrophil migration into BALF / number of lymphocytes in BALF / total cell (leukocyte) count in BALF / increased collagen (fibrosis) score, trichrome / mean Ashcroft score (lung histology) / mean score for mixed peribronchiolar/perivascular inflammation: day 21; for neutrophil migration into BALF / number of lymphocytes in BALF / total cell (leukocyte) count in BALF: oral; for increased collagen (fibrosis) score, trichrome / mean Ashcroft score (lung histology) / mean score for mixed peribronchiolar/perivascular inflammation: compared to vehicle (Group 2). From the text:
4-(5-phenyl-3-{3-[3-(4-trifluoromethyl-phenyl)-ureido]-propyl}-pyrazol-1-yl)-benzenesulfonamide (PTUPB) [termed OX1] was compared to Pirfenidone, Nintedanib, and GSK225629415 [termed OX3] for treatment of IPF using an established model for IPF treating, which is prophylactic treatment of mice exposed to the chemotherapeutic agent bleomycin. […] Pirfenidone and Nintedanib are standard of care for the treatment of idiopathic pulmonary fibrosis and served as reference compounds in the experiment.
C57B/L6 mice were used in the experiments. When used, Bleomycin was administered intra-oropharyngeally, 1.5 U/kg, QD per established protocol. The test articles were dosed via oral gavage in 200 μL/day vehicle. The doses and formulations of test articles were selected based on the literature describing the lowest doses capable of eliciting pharmacological action.
Animals were dosed with the test articles (or vehicle) starting at day −1 to day 20. On day 1, daily doses of Bleomycin commenced in all but group 1 (negative control) which received the vehicle. On day 21, all animals were weighed and sacrificed. After lungs and bronco-alveolar lavage fluid (BALF) were harvested, they were prepared according to standard procedures for further analysis and histology. All animals were assessed twice a week for body weight and overall appearance. Efficacy endpoints measured in this study included lung weight, total leukocytes, and histology as determined by Mason's Trichrome stain and scored using a modified Ashcroft score.
The following parameters were measured in bronchoalveolar fluid (BALF): 1) soluble collagen and 2) differential leukocyte counts for different leukocyte populations.
After weighing and removal of BALF from the lungs, they were inflated and fixed using 10% neutral buffered formalin for histopathology analysis. Fifty-four formalin-fixed lung samples from mice were submitted to HistoTox Labs and were processed routinely. Two slides from each block were sectioned and stained with hematoxylin and eosin (H&E) or Masson's trichrome. Glass slides were evaluated with light microscopy by a board-certified veterinary pathologist. Lung sections were scored according to the modified Ashcroft scale.

Series [3] deals with C57BL/6 mice, bleomycin-induced fibrotic lung injury. Description: Example 2: therapeutic treatment in bleomycin-induced idiopathic pulmonary fibrosis mouse model. The class given is in vivo. The note with it: OX1 60 mg/kg, Pirfenidone 100 mg/kg. From the text:
The purpose of this study is to induce fibrotic lung injury in mice via a single administration of a glycopeptide antibiotic, bleomycin, in order to evaluate the efficacy of dual sEH and COX-2 inhibitor OX-1 in treating and reducing the symptoms associated with idiopathic pulmonary fibrosis. Pirfenidone, standard of care for the treatment of idiopathic pulmonary fibrosis, was used as a reference compound.
Male C57BL/6 mice from Charles River Laboratories aging of 7-8 weeks and weighing around 18-22 g at the time of their enrollment were used in the study.
Doses of OX1 at 60 mg/kg, Pirfenidone at 100 mg/kg, and the disease inducer Bleomycin at 1.5 mg/kg were used. A dosing rate of 10 mL/kg (approximately 0.2 mL/mouse according to their body weight) of OX1 was administered orally once daily to the mice. The mice received OX1 at 60 mg/kg once daily. A dosing rate of 10 mL/kg (approximately 0.2 mL/mouse according to their body weight) of Pirfenidone solution was administered once daily to the mice of the groups receiving Pirfenidone orally at the dose of 100 mg/kg once daily. A single intratracheal instillation of approximately 50 μL (1.5 mg/kg with a dosing rate of 2.5 mL/kg in sterile 0.9% saline) of bleomycin solution was administered to all mice except the sham group on day 0. Animals in the Sham group received one intratracheal instillation of approximately 50 μL of 0.9% saline solution on Day 0 and returned to their respective cages.
Treatment with the vehicle or test articles were initiated and administered starting on day 7 to day 21 as scheduled and described in Table 1 above. All test articles, reference compound and vehicle were administered to animals orally once daily. Food and water were given ad libitum. Daily observations of the behavioral and general health status of the animals were done. Daily body weight was also measured.
Prior to physiological assessment, all mice were introduced to the plethysmograph chamber environment. After the acclimatization period, the functional respiratory parameters were assessed by the whole-body plethysmograph on Day 0 (before bleomycin instillation), 7, 14 and 21 post-bleomycin instillation. Each measurement was performed with a mouse placed alone in an unrestrained whole-body plethysmography chamber (Buxco Electronics Inc.) to measure respiratory functions. The functional respiratory parameters analyzed included; the respiratory rate, the PenH ([…]) and the inspiratory/expiratory time measurements.
On the surgery day (Day 21), the mice were anesthetized, instrumented and arterial blood oxygen saturation (SpO2) was recorded. Blood oxygen saturation was read off of the pulse oximeter (STARR Life Sciences MouseOx Plus system, Oakmont, Pa.) with the probe attached to the right thigh of the animal. The saturation values were measured in percentage (%). At the moment of the sacrifice, the mouse thoracic cavity was open to expose the lungs and all mice were euthanatized by exsanguination. The trachea was then connected to the cannula of a perfusion system. The left lung was clamped while 1.5 mL of cold PBS solution (3×500 μL) was injected by the trachea to perform a bronchoalveolar lavage fluid (BALF) on the right lobe of the lungs and was collected on ice for further analysis. The total cells count with cells differential, the cytokine levels including TNF-α, TGF-β, IL-4, IL-5 and IL-17a, the total protein content as well as the soluble collagen were assessed in the BALF samples. Once collected, 300 μL of the BALF was transferred in an EDTA tube, kept at 2-4° C. and shipped to Biovet Inc. for the total cells count with cells differential analysis. The remaining BALF sample was centrifuged at 1200 rpm for 10 minutes at 4° C. to remove cells. The supernatant was aliquots and frozen at−80° C. until analysis was performed. […]

Where [4] appears, read: lung histopathology day 21, mean.
Where [5] appears, read: mean, BLM mice, oral once daily day 7 to 21.

Consider `COC(=O)c1ccc2c(c1)NC(=O)/C2=C(\Nc1ccc(N(C)C(=O)CN2CCN(C)CC2)cc1)c1ccccc1` [Nintedanib], for which the “Loss of Nuclei” value in series [1] (DAPI staining, nuclear count as measure of potential cytotoxic effects, 72 hours) was “Yes”. Also, the 50% inhibitory concentration (IC50) in series [1] (donor IPF06, readout at 72 hours, read-out: αSMA inhibition IC50 (μM), Patient Identifier IPF06) turned out to be 0.6 µM. Besides, the IC50 in series [1] (donor IPF07, readout at 72 hours, read-out: αSMA inhibition IC50 (μM), Patient Identifier IPF07) was 0.6 µM. Also, the IC50 in series [1] (donor IPF08, readout at 72 hours, read-out: αSMA inhibition IC50 (μM), Patient Identifier IPF08) came to 0.4 µM. Moreover, the IC50 in series [1] (mean of three IPF donors, 72 hours, read-out: αSMA inhibition IC50 (μM), Mean) was determined as 0.5 µM. Moreover, in series [2], the “body weight course over 21 days” value was “sustained weight loss”, the “neutrophil migration into BALF” value was “effective”, the “number of lymphocytes in BALF” value was “trend increasingly lower” and the “total cell (leukocyte) count in BALF” value is “largest reduction”. Further, in series [2], the “increased collagen (fibrosis) score, trichrome” value is given as “the highest”; the “mean Ashcroft score (lung histology)” value was “the highest”; the “mean score for mixed peribronchiolar/perivascular inflammation” value was “similar”.

For `Cc1ccc(=O)n(-c2ccccc2)c1` [Pirfenidone], in series [2], the “body weight course over 21 days” value was “sustained weight loss”, the “neutrophil migration into BALF” value is listed as “did not exhibit any effects”, the “number of lymphocytes in BALF” value was “trend increasingly lower” and the “total cell (leukocyte) count in BALF” value is given as “did not demonstrate the same level of reduction”. For the same compound, in series [2], the “increased collagen (fibrosis) score, trichrome” value is “slightly lower”; the “mean Ashcroft score (lung histology)” value is recorded as “slightly lower”; the “mean score for mixed peribronchiolar/perivascular inflammation” value is reported as “similar”. For the same compound, in series [3] (BALF day 21, mean), the “Eosinophils (cells)” value turned out to be 874 cells, the “Lymphocytes (cells)” value is given as 174517 cells, the “Macrophages (cells)” value was 204110 cells and the “Neutrophils (cells)” value is 6999 cells. In series [3] (BALF day 21, mean), the “Soluble collagen” value was found to be 197.82 µg, the “Total BALF cytokines (pg) IL-4” value is on record as 0.00 pg, the “Total BALF cytokines (pg) IL-5” value worked out at 2.17 pg and the “Total BALF cytokines (pg) IL-6” value was 11.98 pg. Also, in series [3] (BALF day 21, mean), the “Total BALF cytokines (pg) IL-17” value is on record as 0.00 pg, the “Total BALF cytokines (pg) IP-10” value turned out to be 15.24 pg, the “Total BALF cytokines (pg) LIF” value is 24.67 pg and the “Total BALF cytokines (pg) MIG” value came to 8.58 pg. In series [3] (BALF day 21, mean), the “Total BALF cytokines (pg) TNFa” value turned out to be 0.00 pg, the “Total TGFβ” value worked out at 472.64 pg and the “Total cell counts (cells)” value is 386500 cells. Besides, the “Percent Survival (%)” value in series [3] (BLM mice, oral once daily day 7 to 21) is 91.70%. Also, in series [3] (setting [4]), the Ashcroft score is 3.5 ††, the “Collagen content (%)” value came out at 5.91% and the “Pulmonary foci (%)” value is recorded as 7.46%. Further, in series [3] (setting [5]), the “Body weight changes from day 0 (%)” value was determined as 2.47% and the “Body weight changes from day 7 (%)” value is 6.49%.
